Test results published in ChEMBL document CHEMBL1201862, “PubChem BioAssay data set” (2004).
Active and inactive are the calls of the source.

How the values were obtained:
[1] = molecular target: T1, Low molecular weight phosphotyrosine protein phosphatase (Homo sapiens, UniProt P24666); test: LMPTP phosphatase inhibitors, dose response, biochemical, OMFP substrate, fluorescence intensity, set 2 (AID 743307); assay type: functional
T1 sequence (P24666 whole entry): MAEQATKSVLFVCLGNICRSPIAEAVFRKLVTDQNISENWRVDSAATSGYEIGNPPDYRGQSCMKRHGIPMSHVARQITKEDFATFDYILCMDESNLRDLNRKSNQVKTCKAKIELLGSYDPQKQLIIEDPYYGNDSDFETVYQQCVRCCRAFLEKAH

[2] = molecular target: T1, Low molecular weight phosphotyrosine protein phosphatase; test: LMPTP phosphatase inhibitors, colorimetric pNPP readout, dose response, orthogonal assay, biochemical, absorbance, pNPP substrate, LMPTP-A isoform, set 2 (AID 743308); assay type: functional
[3] = molecular target: 72 kDa type IV collagenase (Homo sapiens, UniProt P08253); test: Dose Response validation of uHTS RPN11 inhibitor hits using a MMP-2 Fluorescence assay.; assay type: functional
72 kDa type IV collagenase, sequence (P08253 whole entry): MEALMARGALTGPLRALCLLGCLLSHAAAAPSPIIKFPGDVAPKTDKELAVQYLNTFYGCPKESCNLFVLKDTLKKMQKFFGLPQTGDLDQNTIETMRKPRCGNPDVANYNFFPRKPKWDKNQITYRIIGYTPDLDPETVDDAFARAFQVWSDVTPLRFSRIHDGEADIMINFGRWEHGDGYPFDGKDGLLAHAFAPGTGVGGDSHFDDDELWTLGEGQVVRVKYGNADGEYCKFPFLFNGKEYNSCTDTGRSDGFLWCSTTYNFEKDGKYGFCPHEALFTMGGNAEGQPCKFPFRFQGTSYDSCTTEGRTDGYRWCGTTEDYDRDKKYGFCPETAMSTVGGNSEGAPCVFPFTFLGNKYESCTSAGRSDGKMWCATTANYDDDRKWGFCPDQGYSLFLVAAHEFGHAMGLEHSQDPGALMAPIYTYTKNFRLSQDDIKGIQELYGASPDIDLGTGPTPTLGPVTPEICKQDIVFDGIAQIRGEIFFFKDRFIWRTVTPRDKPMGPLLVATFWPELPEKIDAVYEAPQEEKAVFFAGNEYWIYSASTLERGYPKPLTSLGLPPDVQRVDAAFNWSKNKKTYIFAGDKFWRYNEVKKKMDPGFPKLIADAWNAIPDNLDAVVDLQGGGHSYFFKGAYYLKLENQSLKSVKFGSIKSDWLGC

Aminopeptidase N = molecular target: T2, Aminopeptidase N (Plasmodium falciparum FcB1/Columbia, UniProt O96935); test: P. falciparum M1AAP inhibitors, biochemical, fluorogenic H-Leu-NHMec substrate, 1536-well (AID 1445); set-up: species or system Plasmodium falciparum 3D7, 3D7
T2 sequence (O96935 whole entry): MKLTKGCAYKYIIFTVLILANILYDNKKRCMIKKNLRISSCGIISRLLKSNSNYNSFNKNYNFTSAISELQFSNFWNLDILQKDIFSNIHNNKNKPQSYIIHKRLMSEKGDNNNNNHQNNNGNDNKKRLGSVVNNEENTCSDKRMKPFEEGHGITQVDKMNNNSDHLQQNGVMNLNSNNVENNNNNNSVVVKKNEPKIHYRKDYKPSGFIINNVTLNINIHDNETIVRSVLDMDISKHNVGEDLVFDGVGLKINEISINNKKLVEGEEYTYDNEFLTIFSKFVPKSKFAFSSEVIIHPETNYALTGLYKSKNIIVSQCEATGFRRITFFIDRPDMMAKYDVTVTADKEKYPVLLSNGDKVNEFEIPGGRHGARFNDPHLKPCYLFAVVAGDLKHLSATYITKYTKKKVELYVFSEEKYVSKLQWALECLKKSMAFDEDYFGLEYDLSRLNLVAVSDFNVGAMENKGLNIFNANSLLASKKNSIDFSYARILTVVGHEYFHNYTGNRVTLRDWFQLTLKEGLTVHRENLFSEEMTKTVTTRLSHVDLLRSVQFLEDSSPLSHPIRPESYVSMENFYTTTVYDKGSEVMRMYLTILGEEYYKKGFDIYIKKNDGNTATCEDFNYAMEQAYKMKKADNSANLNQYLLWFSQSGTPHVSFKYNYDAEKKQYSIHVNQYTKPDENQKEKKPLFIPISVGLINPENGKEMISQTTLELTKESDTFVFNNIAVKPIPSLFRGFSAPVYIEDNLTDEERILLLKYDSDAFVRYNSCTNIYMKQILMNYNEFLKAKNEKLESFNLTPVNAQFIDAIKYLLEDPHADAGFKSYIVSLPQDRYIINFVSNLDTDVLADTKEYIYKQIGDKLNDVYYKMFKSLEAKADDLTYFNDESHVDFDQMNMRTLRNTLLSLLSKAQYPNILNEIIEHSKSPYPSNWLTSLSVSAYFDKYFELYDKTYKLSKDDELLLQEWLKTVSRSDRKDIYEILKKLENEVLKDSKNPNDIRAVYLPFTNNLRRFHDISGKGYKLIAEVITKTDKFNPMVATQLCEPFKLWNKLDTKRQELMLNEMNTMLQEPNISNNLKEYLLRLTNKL

Protein RecA = molecular target: T3, Protein RecA (Mycobacterium tuberculosis, UniProt P9WHJ3); test: Fluorescence Cell-Free Homogeneous Dose Retest to Identify Inhibitors of RecA-Intein Splicing Activity. [Related pubchem assays (depositor defined):AID2097, AID2223, AID489010, AID492950]; assay type: functional
T3 sequence (P9WHJ3 whole entry): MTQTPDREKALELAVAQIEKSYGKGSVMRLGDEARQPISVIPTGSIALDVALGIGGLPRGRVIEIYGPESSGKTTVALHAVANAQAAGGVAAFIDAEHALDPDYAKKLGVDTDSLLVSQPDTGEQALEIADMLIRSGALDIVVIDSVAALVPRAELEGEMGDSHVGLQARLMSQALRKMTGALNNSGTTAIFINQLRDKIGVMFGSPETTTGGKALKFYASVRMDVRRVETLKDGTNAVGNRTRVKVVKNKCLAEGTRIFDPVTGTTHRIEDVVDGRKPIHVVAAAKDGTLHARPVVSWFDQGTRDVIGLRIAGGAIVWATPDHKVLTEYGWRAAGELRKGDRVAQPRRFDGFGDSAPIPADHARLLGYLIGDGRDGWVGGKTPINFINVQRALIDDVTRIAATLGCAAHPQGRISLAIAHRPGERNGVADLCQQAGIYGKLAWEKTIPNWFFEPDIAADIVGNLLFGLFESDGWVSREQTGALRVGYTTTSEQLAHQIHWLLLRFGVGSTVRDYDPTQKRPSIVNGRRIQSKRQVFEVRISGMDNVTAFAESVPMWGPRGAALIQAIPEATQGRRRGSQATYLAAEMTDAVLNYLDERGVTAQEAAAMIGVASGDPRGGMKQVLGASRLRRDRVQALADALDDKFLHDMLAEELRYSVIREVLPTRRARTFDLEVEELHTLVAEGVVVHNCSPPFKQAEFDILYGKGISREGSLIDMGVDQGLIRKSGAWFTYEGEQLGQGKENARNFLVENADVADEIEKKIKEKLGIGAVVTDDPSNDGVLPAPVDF

[4] = molecular target: 26S proteasome non-ATPase regulatory subunit 14 (Homo sapiens, UniProt O00487); test: inhibition of proteasome subunit RPN11 – biochemical, fluorescence polarization, uHTS hits, confirmation (AID 602368); assay type: functional
26S proteasome non-ATPase regulatory subunit 14, sequence (O00487 whole entry): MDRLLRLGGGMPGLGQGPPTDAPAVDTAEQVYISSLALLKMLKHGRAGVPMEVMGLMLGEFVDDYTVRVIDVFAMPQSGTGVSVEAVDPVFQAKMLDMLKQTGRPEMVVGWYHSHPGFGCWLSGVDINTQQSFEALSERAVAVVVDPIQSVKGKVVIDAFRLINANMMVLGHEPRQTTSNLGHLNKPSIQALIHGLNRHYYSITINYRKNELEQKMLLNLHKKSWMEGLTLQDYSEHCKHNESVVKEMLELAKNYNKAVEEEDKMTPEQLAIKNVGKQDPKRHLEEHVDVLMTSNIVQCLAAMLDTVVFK

[5] = molecular target: Matrix metalloproteinase-14 (Homo sapiens, UniProt P50281); test: Dose Response confirmation of uHTS hits for a small molecule inhibitors of MT1-MMP activation in a fluorescence assay set 1.; assay type: functional
Nonstructural protein 1 = Nonstructural protein 1 (Influenza A virus, UniProt Q194T2); assay type: functional, Influenza A virus (A/California/07/2009(H1N1))
Nonstructural protein 1, sequence (Q194T2 whole entry): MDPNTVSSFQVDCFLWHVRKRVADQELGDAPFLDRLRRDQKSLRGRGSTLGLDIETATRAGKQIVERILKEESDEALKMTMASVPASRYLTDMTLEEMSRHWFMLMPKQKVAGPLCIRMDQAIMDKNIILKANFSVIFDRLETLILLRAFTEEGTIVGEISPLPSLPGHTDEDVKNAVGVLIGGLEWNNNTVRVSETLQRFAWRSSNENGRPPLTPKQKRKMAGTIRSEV

Large T antigen = Large T antigen (Simian virus 40, UniProt P03070); assay type: functional, Betapolyomavirus macacae;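 note: Confirmatory-stage PubChem screen for compounds that inhibit SV40 T antigen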
Large T antigen, sequence (P03070 whole entry): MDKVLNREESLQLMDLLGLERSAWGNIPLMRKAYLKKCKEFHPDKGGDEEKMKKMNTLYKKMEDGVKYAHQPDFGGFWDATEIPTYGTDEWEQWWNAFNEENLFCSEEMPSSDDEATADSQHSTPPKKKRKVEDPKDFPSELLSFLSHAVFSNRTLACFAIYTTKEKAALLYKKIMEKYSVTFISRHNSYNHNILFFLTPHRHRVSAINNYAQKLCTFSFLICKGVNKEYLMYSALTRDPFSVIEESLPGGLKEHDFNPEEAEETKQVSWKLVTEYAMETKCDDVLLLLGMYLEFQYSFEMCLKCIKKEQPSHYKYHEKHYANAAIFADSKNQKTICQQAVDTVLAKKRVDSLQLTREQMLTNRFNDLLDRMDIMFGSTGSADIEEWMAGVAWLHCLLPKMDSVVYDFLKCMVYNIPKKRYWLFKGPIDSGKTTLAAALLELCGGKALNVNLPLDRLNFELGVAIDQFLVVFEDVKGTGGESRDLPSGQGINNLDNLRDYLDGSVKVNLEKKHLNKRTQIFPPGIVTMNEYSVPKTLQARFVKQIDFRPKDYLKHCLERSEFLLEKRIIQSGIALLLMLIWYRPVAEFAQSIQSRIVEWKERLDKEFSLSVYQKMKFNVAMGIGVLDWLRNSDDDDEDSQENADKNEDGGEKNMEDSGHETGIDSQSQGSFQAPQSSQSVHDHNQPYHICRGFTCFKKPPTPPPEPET

[6] = molecular target: T4, Replicative DNA helicase DnaB (Mycobacterium tuberculosis, UniProt P9WMR3); test: DnaB intein splicing inhibitors, dose response, biochemical, cell-free fluorescence (AID 449749); assay type: functional
T4 sequence (P9WMR3 whole entry): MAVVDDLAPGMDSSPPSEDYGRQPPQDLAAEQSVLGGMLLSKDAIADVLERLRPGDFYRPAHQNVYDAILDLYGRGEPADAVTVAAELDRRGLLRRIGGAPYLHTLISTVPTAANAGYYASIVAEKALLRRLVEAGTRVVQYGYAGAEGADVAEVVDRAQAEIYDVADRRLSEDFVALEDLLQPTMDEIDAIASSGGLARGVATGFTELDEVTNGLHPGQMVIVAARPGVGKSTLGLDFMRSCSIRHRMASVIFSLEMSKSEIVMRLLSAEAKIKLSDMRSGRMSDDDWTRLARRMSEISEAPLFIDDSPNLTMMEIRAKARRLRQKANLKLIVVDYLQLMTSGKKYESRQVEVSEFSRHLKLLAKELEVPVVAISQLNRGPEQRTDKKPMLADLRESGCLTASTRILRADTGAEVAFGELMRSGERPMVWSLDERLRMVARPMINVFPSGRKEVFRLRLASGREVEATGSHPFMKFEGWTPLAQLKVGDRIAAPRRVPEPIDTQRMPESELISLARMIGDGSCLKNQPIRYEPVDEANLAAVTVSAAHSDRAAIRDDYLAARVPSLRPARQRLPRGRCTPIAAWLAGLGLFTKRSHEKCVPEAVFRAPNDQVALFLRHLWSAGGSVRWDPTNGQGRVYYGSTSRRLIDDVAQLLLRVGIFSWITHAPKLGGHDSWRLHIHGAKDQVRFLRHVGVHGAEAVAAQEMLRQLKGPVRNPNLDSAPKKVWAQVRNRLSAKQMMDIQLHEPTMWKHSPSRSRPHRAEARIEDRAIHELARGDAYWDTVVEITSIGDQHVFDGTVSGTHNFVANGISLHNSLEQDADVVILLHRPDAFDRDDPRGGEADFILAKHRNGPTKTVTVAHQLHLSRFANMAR

Prothrombin = Prothrombin (Bos taurus, UniProt P00735); test: thrombin inhibition, dose response, biochemical, fluorescence polarization, uHTS hits (AID 602369); assay type: functional
[7] = THP-1 cell cytotoxicity, dose response, cytotoxicity control for Vif-APOBEC3G degradation inhibitor project, THP-1 cells (AID 1117359); assay type: functional; details: Human immunodeficiency virus 1, THP-1
NADPH oxidase 1 = molecular target: T5, NADPH oxidase 1 (Homo sapiens, UniProt Q9Y5S8); test: Late-stage luminescence-based cell-based dose response assay to identify inhibitors of NADPH oxidase 1 (NOX1): Synthesized analogs.; assay type: functional
T5 sequence (Q9Y5S8 whole entry): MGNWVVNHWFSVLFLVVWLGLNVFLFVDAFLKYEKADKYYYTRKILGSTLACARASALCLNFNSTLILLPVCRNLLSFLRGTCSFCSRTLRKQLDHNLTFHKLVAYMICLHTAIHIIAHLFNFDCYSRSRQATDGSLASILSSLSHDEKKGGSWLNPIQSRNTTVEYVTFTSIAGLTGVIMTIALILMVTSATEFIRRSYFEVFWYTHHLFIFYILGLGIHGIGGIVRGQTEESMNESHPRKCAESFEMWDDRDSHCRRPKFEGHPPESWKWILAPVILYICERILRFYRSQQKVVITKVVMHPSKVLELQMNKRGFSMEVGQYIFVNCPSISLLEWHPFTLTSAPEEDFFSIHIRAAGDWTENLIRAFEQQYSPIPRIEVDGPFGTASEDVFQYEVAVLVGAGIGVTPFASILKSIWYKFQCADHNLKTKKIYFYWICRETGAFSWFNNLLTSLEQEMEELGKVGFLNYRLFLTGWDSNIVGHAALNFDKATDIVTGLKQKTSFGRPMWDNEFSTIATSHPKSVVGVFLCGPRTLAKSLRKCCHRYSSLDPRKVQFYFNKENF

Protein Tat = Protein Tat (Human immunodeficiency virus type 1 group M subtype B (isolate HXB2)(HIV-1), UniProt P04608); assay type: functional;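 note: tat binding to TAR RNA read out by fluorescence polarization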
Protein Tat, sequence (P04608 whole entry): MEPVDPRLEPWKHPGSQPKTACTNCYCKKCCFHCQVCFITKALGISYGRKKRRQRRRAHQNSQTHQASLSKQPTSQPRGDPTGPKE

cells [8] = assay type: functional, cell-based
cells [9] = assay type: functional, cell-based; remark: listed apart in the source
[10] = Vero cell cytotoxicity, dose response, cytotoxicity control for Vif-APOBEC3G degradation inhibitor project, Vero cells (AID 1117358); assay type: functional; details: Human immunodeficiency virus 1, Vero
[11] = inhibitors of Vif binding to APOBEC3G peptide, primary screen, biochemical, TR-FRET, GST-Vif 1-94, biotin-A3G peptide, dose response retest (AID 1117319); assay type: functional;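 note: TR-FRET signal of purified GST-Vif binding a biotinylated A3G peptide; inhibitors lower the FRET signal by blocking Vif and A3G binding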
[12] = molecular target: Heat shock protein HSP 90-alpha (Homo sapiens, UniProt P07900); test: Luminescence-based dose response biochemical high throughput screening assay for inhibitors of the Heat Shock Protein 90 (HSP90). [Related pubchem assays: 1831 (Summary AID.), 1846 (Confirmation screen.), 1789 (Primary screen.)]
[13] = inhibitors of intracellular T. cruzi replication, confirmation, NIH3T3 host cells, beta-gal luminescence (AID 2044); assay type: functional, cell-based;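 note: intracellular parasites grown in NIH/3T3 mouse fibroblasts as host cells; luminescent beta-galactosidase reporter signal from transgenic T. cruzi replicating inside host cells; inhibitors lower the luminescence signal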
cells [14] = assay type: functional
[15] = molecular target: T6, Heat shock factor protein 1 (Mus musculus, UniProt P38532); test: inhibition of MG132-induced HSE-luciferase signal, confirmation, cell-based, NIH3T3, luminescence, dose retest (AID 2382); assay type: functional;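 note: NIH3T3 fibroblasts with HSF1-driven luciferase reporter stressed by proteasome inhibitor MG132; luminescence from HSF1-driven luciferase expression after 8 hours of MG132 stress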
T6 sequence (P38532 whole entry): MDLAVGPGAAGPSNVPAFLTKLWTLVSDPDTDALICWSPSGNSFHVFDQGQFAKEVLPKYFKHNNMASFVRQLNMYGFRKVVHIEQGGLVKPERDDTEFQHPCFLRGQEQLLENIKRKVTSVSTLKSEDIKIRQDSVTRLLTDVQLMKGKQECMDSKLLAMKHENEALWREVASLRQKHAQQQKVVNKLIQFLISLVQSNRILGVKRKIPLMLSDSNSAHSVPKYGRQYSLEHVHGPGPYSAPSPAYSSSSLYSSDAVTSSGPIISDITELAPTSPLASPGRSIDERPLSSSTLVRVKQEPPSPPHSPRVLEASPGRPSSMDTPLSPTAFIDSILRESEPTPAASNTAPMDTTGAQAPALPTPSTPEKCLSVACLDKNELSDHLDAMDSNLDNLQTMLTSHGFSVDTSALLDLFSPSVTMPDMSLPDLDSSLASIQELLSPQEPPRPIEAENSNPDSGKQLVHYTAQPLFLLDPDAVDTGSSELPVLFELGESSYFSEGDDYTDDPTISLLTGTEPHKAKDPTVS

[16] = THP-1 cell cytotoxicity, dose response, cytotoxicity control for non-replicating M. tuberculosis project (AID 489025); assay type: functional
[17] = cytotoxicity toward NIH3T3 fibroblasts, dose response, counter-screen, cell-based, ATP luminescence, mouse fibroblasts (AID 2010); assay type: functional;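 note: cells exposed to compound for about 90 hours before reading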
[18] = microbe, parasite or virus in culture; assay type: functional; details: Mycobacterium tuberculosis
[19] = molecular target: Mitogen-activated protein kinase 10 (Homo sapiens, UniProt P53779); test: Dose response biochemical screening assay for inhibitors of c-Jun N-Terminal Kinase 3 (JNK3). [Related pubchem assays: 746 ]
Mitogen-activated protein kinase 10, sequence (P53779 whole entry): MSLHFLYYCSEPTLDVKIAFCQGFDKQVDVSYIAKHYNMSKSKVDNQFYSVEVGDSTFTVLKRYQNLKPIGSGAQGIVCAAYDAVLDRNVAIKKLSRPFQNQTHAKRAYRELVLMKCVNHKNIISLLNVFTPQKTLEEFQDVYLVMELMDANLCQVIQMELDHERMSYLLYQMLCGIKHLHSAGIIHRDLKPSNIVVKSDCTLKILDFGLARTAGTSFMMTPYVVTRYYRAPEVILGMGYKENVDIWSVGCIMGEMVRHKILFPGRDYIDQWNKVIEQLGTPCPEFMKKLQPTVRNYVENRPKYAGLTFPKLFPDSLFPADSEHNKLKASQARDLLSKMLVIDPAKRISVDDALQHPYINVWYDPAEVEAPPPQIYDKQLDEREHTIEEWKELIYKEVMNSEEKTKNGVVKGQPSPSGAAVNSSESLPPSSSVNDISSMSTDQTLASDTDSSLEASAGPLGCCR

Cc1ccc2nc(-c3ccccc3)cc(NCCCN3CCCCC3)c2c1
IC50 [1]: > 80 µM (inactive)
IC50 [2]: > 80 µM (inactive)

CCN(CC)c1ccc(/C=C2\C(=O)N(c3nnc(C)c(O)n3)N=C2C)cc1
IC50 [3]: 96 µM (active)
IC50 (Aminopeptidase N): 42.6 µM (active)
EC50 (Protein RecA): 2.08 µM (active)
IC50 [4]: 49.4 µM (active)
IC50 [5]: 32.8 µM (inactive)
IC50 (Nonstructural protein 1): 12.6 µM (active)
IC50 (Large T antigen): 54.1 µM (active)
AC50 [6]: 6.6 µM (active)
IC50 (Prothrombin): 49.9 µM (active)
CC50 [7]: 25.6 µM (active)

CC(=NNC(=O)c1ccc(O)cc1)c1ccc2c(c1)Nc1ccccc1S2
IC50 (NADPH oxidase 1): 382 nM (active)

COC(=O)/C(=C(/F)SCC(C)=O)C(F)(F)F
IC50 (Protein Tat): > 100 µM (active)
EC50 (cells [8]): > 350 µM (not active)
EC50 (cells [9]): > 350 µM (not active)

CCCNC(=O)c1ccc2c(c1)C1C3CCC(C3)C1C(c1ccccc1)N2 (stereo unspecified)
CC50 [10]: > 40 µM (active)
IC50 [11]: > 100 µM (active)

COc1cccc(-c2cc3nc4c(c(NCC(C)(C)CN(C)C)n3n2)CCCC4)c1
IC50 [12]: 2.39 µM (active)
EC50 [13]: 487 nM (active)
IC50 (cells [14]): 19.2 µM (active)
EC50 [15]: 775 nM (active)
CC50 [16]: 28.9 µM (active)
EC50 [17]: > 60 µM (not active)
CC50 [18]: 34.2 µM (active)

COc1ccc(CC(=O)Nc2nc(C)cs2)cc1OC
IC50 [19]: 27.9 µM (not active)
